36 molecules from US8455528B2, “Imidazole derivatives useful as inhibitors of FAAH” (Merck Sharp & Dohme Corp., priority 2008, dated 2013) can be followed below.

pIC50: −log10 of the molar value. Where a name gives a salt, the structure may show the parent alone.

In the first assay the target is T1, Human FAAH (Homo sapiens, UniProt O00519).
T1 construct: The full length FAAH was subcloned into the mammalian expression vector, pcDEF.neo; expressed in transfected cells
T1 sequence (O00519 1-579): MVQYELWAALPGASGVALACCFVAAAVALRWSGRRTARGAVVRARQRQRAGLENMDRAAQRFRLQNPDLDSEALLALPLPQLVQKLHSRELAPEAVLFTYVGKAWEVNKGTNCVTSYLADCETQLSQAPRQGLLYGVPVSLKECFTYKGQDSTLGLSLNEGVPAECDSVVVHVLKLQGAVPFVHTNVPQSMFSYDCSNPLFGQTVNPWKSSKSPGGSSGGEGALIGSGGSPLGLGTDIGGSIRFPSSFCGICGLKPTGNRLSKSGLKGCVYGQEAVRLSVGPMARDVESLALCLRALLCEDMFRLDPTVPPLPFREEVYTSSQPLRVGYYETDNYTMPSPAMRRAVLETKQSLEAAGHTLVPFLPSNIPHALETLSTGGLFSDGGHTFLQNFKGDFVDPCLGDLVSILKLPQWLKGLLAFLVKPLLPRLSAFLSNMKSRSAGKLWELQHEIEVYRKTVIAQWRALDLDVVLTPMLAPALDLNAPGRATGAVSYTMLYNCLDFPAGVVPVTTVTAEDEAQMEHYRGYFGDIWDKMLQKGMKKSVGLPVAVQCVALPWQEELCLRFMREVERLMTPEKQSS
Briefly: Human FAAH lysate assay (CHO cell lysate, AAMCA fluorescent substrate). Format: biochemical. The settings on record: FAAH inhibition, CHO cell lysate expressing human FAAH; read-out: Human Lysate. An excerpt:
To assist in assay development stable cell lines for human, murine and rat full length FAAH were developed. Human FAAH cDNA (Accession No: NM-001441.1) was purchased from Origene (Rockville, Md.). The full length FAAH was subcloned into the mammalian expression vector, pcDEF.neo, using XbaI and EcoRI restriction sites and used for stable cell line generation. CHO cells expressing FAAH were used to prepare either crude cell lysate or microsome fractions. To harvest cells, tissue culture media was decanted, the monolayer washed three times with Ca^++Mg^++ free PBS and cells recovered after 15 min in enzyme free dissociation media (Millipore Corp, Billerica, Mass.). Cells were collected by centrifuging at 2000 rpm for 15 min. and the cell pellet re-suspended with 50 mM HEPES (pH 7.4) containing 1 mM EDTA and the protease inhibitors aprotinin (1 mg/ml) and leupeptin (100 μM). […] The pellet containing FAAH-enriched microsomes was re-suspend in 50 mM HEPES, (pH 7,4) 1 mM EDTA, and any remaining DNA sheared by passage of material through a 23 gauge needle and aliquots of enzyme were store at -80° C. prior to use. […] (American Radiolabeled Chemicals; 1 mCi/ml) with FAAH (Life Sciences (1995), 56, 1999-2005 and Journal of Pharmacology and Experimented Therapeutics (1997), 283, 729-734), Analytical. Biochemistry (2003), 318, 270-5. […] Analytical. Biochemistry (2005). 343, 143-51 […] Fluorescent release as a measure of FAAH activity was monitored by reading the plate in a CytoFluor Multiplate Reader ([…]). Whole cell assay is conducted with cells harvested after rinsing tissue culture flasks three times with Ca^++Mg^++ free PBS, incubating for 10 min in Enzyme free dissociation media and centrifuging for 5 minutes at 1,000 rpm in table top centrifuge. Cells are resuspended in assay buffer at desired cell number in (4×10^4 cells/assay in 96-well format; 1×10^4 cells/assay in 384-well format) and assayed as described. […] The reaction was terminated by addition of 2 volumes of chloroform:methanol (1:1) and mixed by vortexing. […] K., et al. A fluorescence-based assay for fatty acid amide hydrolase compatible with high-throughput screening. Anal. Biochem. 343:143-51 (2005) • Wilson S. J., et l. A high-throughput-compatible assay for determining the activity of fatty acid amide hydrolase. Anal Biochem. 318:270-5 (2003).
Regarding `Cn1c(-c2ccccc2)nc(Sc2ccc(Cl)cc2)c1-c1ccc(C#N)cc1` [Ex 3, 4-{4-[(4-chlorophenyl)thio]-1-methyl-2-phenyl-1H-imidazol-5-yl}benzonitrile], the pIC50 is 6.43.

The same assay, now with this note: human FAAH lysate; read-out: Human FAAH lysate assay: IC50.
On to `Cn1c(-c2ccccn2)nc(-c2ccc(S(C)(=O)=O)nc2)c1Sc1ccc(Cl)cn1` [Example 100, 5-Chloro-2-({1-methyl-4-[6-(methylsulfonyl)pyridin-3-yl]-2-pyridin-2-yl-1H-imidazol-5-yl}thio)pyridine], for which the pIC50 is 7.32.

`Cn1c(-c2ccccn2)nc(-c2ccc(C(C)(C)O)nc2)c1Sc1ccc(Cl)cc1` [Example 105, 2-(5-{5-[(4-Chlorophenyl)thio]-1-methyl-2-pyridin-2-yl-1H-imidazol-4-yl}pyridin-2-yl)propan-2-ol]: the pIC50 was 7.42.

`Cn1c(-c2ccccn2)nc(-c2ccc(-c3ccco3)cc2)c1Sc1ccc(Cl)cc1` [Example 116, 5-[(4-chlorophenyl)thio]-4-[4-(2-furyl)phenyl]-1-methyl-2-pyridin-2-yl-1H-imidazol-3-ium trifluoroacetate]: the pIC50 was 7.76.

As for `Cn1c(-c2ccccn2)nc(-c2ccc(-c3nccs3)cc2)c1Sc1ccc(Cl)cc1` [Example 119, 2-{5-[(4-chlorophenyl)thio]-1-methyl-4-[4-(1,3-thiazol-2-yl)phenyl]-1H-imidazol-2-yl}pyridine], the pIC50 was 7.84.

Turning to `Cn1cnc(-c2ccc(OC(C)(C)C(N)=O)cc2)c1Sc1ccc(Cl)cn1` [Example 124, 2-(4-{5-[(5-chloropyridin-2-yl)thio]-1-methyl-1H-imidazol-4-yl}phenoxy)-2-methylpropanamide], the pIC50 was 7.44.

Regarding `Cn1cnc(-c2ccc(OC(C)(C)CO)cc2)c1Sc1ccc(Cl)cn1` [Example 125, 5-[(5-chloropyridin-2-yl)thio]-4-[4-(2-hydroxy-1,1-dimethylethoxy)phenyl]-1-methyl-1H-imidazol-3-ium trifluoroacetate], the pIC50 is 6.70.

Turning to `Cn1cnc(-c2ccc(OC(C)(C)C(O)C(F)(F)F)cc2)c1Sc1ccc(Cl)cn1` (stereo not drawn) [Example 126, 3-(4-{5-[(5-chloropyridin-2-yl)thio]-1-methyl-1H-imidazol-4-yl}phenoxy)-1,1,1-trifluoro-3-methylbutan-2-ol], the pIC50 is 6.73.

Regarding `CC(CO)NC(=O)c1ccc(-c2nc(-c3ccccn3)n(C)c2Sc2ccc(Cl)cc2)cc1` (stereo not drawn) [Example 127, 4-{5-[(4-chlorophenyl)thio]-1-methyl-2-pyridin-2-yl-1H-imidazol-4-yl}-N-(2-hydroxy-1-methylethyl)benzamide], the pIC50 was 7.11.

On to `CS(=O)(=O)c1ccc(-c2nc3n(c2Sc2ccc(Cl)cc2)CCC2CCCNC32)cc1` (stereo not drawn) [Example 128, 3-[(4-chlorophenyl)thio]-2-[4-(methylsulfonyl)phenyl]-5,6,6a,7,8,9,10,10a-octahydroimidazo[1,2-h]-1,7-naphthyridine], for which the pIC50 was 7.01.

`CC(C)(O)c1ccc(-c2nc3c4ncccc4ccn3c2Sc2ccc(Cl)cc2)cc1` [Example 130, 2-(4-{3-[(4-chlorophenyl)sulfanyl]imidazo[1,2-h][1,7]naphthyridin-2-yl}phenyl)propan-2-ol]: the pIC50 is 7.33.

On to `Cn1c(C2CC2)nc(-c2ccc3nc(C(F)F)ccc3c2)c1Sc1ccc(Cl)cn1` [Example 131, 6-{5-[(5-chloropyridin-2-sulfanyl]-2-cyclopropyl-1-methyl-1H-imidazol-4-yl}-2-difluoromethyl)quinoline], for which the pIC50 is 7.75.

Take `Cn1c(I)nc(-c2ccc(S(C)(=O)=O)cc2)c1Sc1ccc(Cl)cc1` [Example 133, 5-[(4-chlorophenyl)thio]-2-iodo-1-methyl-4-[4-(methylsulfonyl)phenyl]-1H-imidazole]: the pIC50 was 7.81.

Turning to `Cn1cc(-c2nc(-c3ccc(S(C)(=O)=O)cc3)c(Sc3ccc(Cl)cc3)n2C)cn1` [Example 134, 4-{5-[(4-chlorophenyl)sulfanyl]-1-methyl-4-[4-(methylsulfonyl)phenyl]-1H-imidazol-2-yl}-1-methyl-1H-pyrazole], the pIC50 was 7.86.

The assay is the same for the next values; noted with them: human FAAH lysate; read-out: hFAAH lysate IC50.
`Cn1c(-c2ccccn2)nc(-c2ccc(S(C)(=O)=O)nc2)c1Sc1ccc(Cl)cc1` [Example 101]: the pIC50 was 8.20.

With `Cn1c(-c2ccccn2)nc(-c2ccc(S(C)(=O)=O)nc2)c1Sc1ccc(F)cc1F` [Example 102], the pIC50 is 7.81.

On to `Cn1c(-c2ccccn2)nc(-c2ccc(S(C)(=O)=O)nc2)c1Sc1ccc(F)c(F)c1` [Example 103], for which the pIC50 is 7.42.

As to `COc1cnc(Sc2c(-c3ccc(S(C)(=O)=O)nc3)nc(-c3ccccn3)n2C)nc1` [Example 104], the pIC50 was 6.69.

Take `Cn1c(-c2ccccn2)nc(-c2ccc(C(C)(C)O)nc2)c1Sc1ccc(Cl)cn1` [Example 106]: the pIC50 is 7.42.

Consider `Cn1c(-c2ccccn2)nc(-c2ccc(C(C)(C)O)nc2)c1Sc1ccc(F)c(F)c1` [Example 107], for which the pIC50 is 7.22.

Take `Cn1c(-c2ccccn2)nc(-c2ccc(C(C)(C)O)nc2)c1Sc1ccc(F)cc1F` [Example 108]: the pIC50 was 7.48.

For the molecule `Cn1c(-c2ccccn2)nc(-c2ccc(C(C)(C)O)nc2)c1Sc1ccc(F)cn1` [Example 109], the pIC50 was 6.87.

Take `Cn1c(-c2ccccn2)nc(-c2ccc(C(C)(C)O)nc2)c1Sc1ccc(Cl)cc1F` [Example 110]: the pIC50 is 7.47.

Consider `Cn1c(-c2ccc(F)c(F)c2)nc(-c2ccc(C(C)(C)O)nc2)c1Sc1ccc(Cl)cc1F` [Example 112], for which the pIC50 was 6.94.

`Cn1c(-c2ccc(F)cc2)nc(-c2ccc(C(C)(C)O)nc2)c1Sc1ccc(Cl)cc1F` [Example 113]: the pIC50 is 7.17.

With `Cn1c(-c2ccc(F)c(F)c2)nc(-c2ccc(C(C)(C)O)nc2)c1Sc1ccc(Cl)cc1` [Example 114], the pIC50 is 7.06.

For the molecule `Cn1c(-c2ccc(F)cc2)nc(-c2ccc(C(C)(C)O)nc2)c1Sc1ccc(Cl)cc1` [Example 115], the pIC50 was 7.17.

With `Cn1c(-c2ccccn2)nc(-c2ccc(-c3ccsc3)cc2)c1Sc1ccc(Cl)cc1` [Example 117], the pIC50 is 8.06.

As to `Cn1c(-c2ccccn2)nc(-c2ccc(-c3ccncc3)cc2)c1Sc1ccc(Cl)cn1` [Example 118], the pIC50 is 8.11.

As to `Cn1c(-c2ccccn2)nc(-c2ccc(-c3ncco3)cc2)c1Sc1ccc(Cl)cn1` [Example 120], the pIC50 was 7.58.

In the case of `Cn1c(-c2ccccn2)nc(-c2ccc(-c3cccs3)cc2)c1Sc1ccc(Cl)cc1` [Example 121], the pIC50 is 7.73.

On to `Cn1c(-c2ccccn2)nc(-c2ccc(-c3ccnnc3)cc2)c1Sc1ccc(Cl)cn1` [Example 122], for which the pIC50 was 7.80.

In the case of `COC(=O)c1ccc(-c2nc3c4ncccc4ccn3c2Sc2ccc(Cl)cc2)cc1` [Example 129], the pIC50 was 7.92.

For the molecule `CN(C)C(=O)c1ccc2cc(-c3nc(C4CC4)n(C)c3Sc3ccc(Cl)cn3)ccc2n1` [Example 132, 6-{5-[(5-chloropyridin-2-yl)thio]-2-cyclopropyl-1-methyl-1H-imidazol-4-yl}-N,N-dimethylquinoline-2-carboxamide], the pIC50 is 6.84.

Regarding `Cn1c(-c2ccsc2)nc(-c2ccc(S(C)(=O)=O)cc2)c1Sc1ccc(Cl)cc1` [Example 135], the pIC50 was 7.59.

`COc1ccc(-c2nc(-c3ccc(S(C)(=O)=O)cc3)c(Sc3ccc(Cl)cc3)n2C)cn1` [Example 136]: the pIC50 is 6.91.
